What is called melting point is the temperature of the solid-liquid transition.

The record followed here is a melting point compilation (Tetko et al.; mined from patent text by program, amines drawn as free bases though some values may be those of a salt).

Regarding `NCC1Cc2cc(C(F)(F)F)cc(-c3cccc(F)c3)c2O1` (stereo unspecified), the melting point is above 250 °C.
As for `COC(=O)c1ccc(CNc2ccc(C)c(Nc3nccc(-c4cccnc4)n3)c2)cc1`, the figure is 158 °C; as for `O=[N+]([O-])c1ccc(CO)c(Sc2ccccc2O)c1`, 131 to 133 °C.
As for `CCCCCCCC1CC(C(=O)O)C(=O)O1` (stereo unspecified), the figure is 51 to 54 °C; as for `COc1ccccc1CCN1CC(=O)N(c2cnn(Cc3c(C)noc3C)c2)C1=O`, 97 to 98 °C.
Consider `O=C(O)c1cnn2c(-c3cccc(C(F)(F)F)c3)ccnc12`, for which the melting point lay within 248 to 250 °C.
For `CCCCCCCCC1CC(Cn2cncn2)(c2ccc(OC)cc2)N(C)O1` (stereo unspecified) the value was 89 to 91 °C; for `CON(C)C(=O)Nc1ccc(CC#N)cc1Cl`, 104 °C; for `Cn1c(=O)nc(NCCCN2CCN(C(c3ccccc3)c3ccccc3)CC2)c2ccccc21`, 121 to 124 °C.
As for `Cc1c(-c2ccccc2)oc2c(SCCCCCl)cccc2c1=O`, the figure is 81 to 84 °C.
For `COc1ccc(S(=O)(=O)Nc2ccc(F)cc2Nc2ccccc2)cc1` the value was 173 to 174 °C; for `Cc1ccc(Cn2c(=O)[nH]c3cc(Cl)cc(Cl)c3c2=O)cc1`, 210 to 218 °C; for `COc1ccc(-c2cc3cc(OC)c(OC)cc3c(C)n2)cc1OC`, 168 to 169 °C.
In the case of `Cc1cccc(C=NNc2nc(OCCc3ccccn3)nc(N3CCOCC3)n2)c1`, the melting point was 143 to 147 °C.
As for `Cn1c(C(F)(F)F)cc(=O)n(-c2ccc(Cl)c3c2OC(C)(C)C3=O)c1=O`, the figure is 177 to 178 °C.
The compound `COc1ccc(-c2nnc(C(=O)N3CC(Oc4ccc(CN5CCC(C)(CO)CC5)cc4)C3)o2)cc1` yielded a melting point of 102 °C.
For `COc1ccc(Sc2ccc3[nH]cc(C4CCN(C)CC4)c3c2)cc1` the value was 160 to 162 °C; for `CC(=O)NC[C@H]1CN(c2ccc(N3CCN(C(=O)CCC(=O)c4ccc(Br)cc4)CC3)c(F)c2)C(=O)O1`, 197 to 198 °C.
Compound `CC(=O)Oc1ccc(-c2cnc(C)[nH]c2=O)cc1OC(C)=O` returned a melting point of 178 to 179 °C.
As for `CC(C)(C)OC(=O)NC1CCN(c2nc3c(cc2F)c(=O)n(N)c(=O)n3C2CC2)C1` (stereo unspecified), the figure is 108 to 110 °C.
As for `CCCCc1cn(CCCC)c(=O)n1Cc1ccc(-c2cccnc2-c2nnn[nH]2)cc1`, the figure is 178 to 180 °C; as for `O=[N+]([O-])c1ccc(CP2(=O)OCCCCO2)cc1`, 136 to 137 °C; as for `CCCn1c(COCC)nc2c(N)nc3ccc(OCCNS(C)(=O)=O)cc3c21`, 178 to 180 °C.
For `CSC(Oc1ccc2ncc(I)cc2c1)C(=O)NC(C)(C)C` (stereo unspecified) the value was 165 to 166 °C; for `COc1ccccc1C1(N)C(=O)Nc2ccc(Cl)cc21` (stereo unspecified), 220 to 224 °C.
As for `CC(C)(C)OC(=O)/C=C/c1cc2ncc(C#N)c(Cl)c2s1`, the melting point fell in the range of 193 to 194 °C.
As for `CCC(=O)c1ccc(C(CC(=O)Nc2cc(C(N)=O)ccc2C(C)(C)C)CC(C)C)c(OC)c1` (stereo unspecified), the figure is 186 to 187 °C; as for `CC(C)(C)OC(=O)NC(C)(CO)C(=O)OC(C)(C)C` (stereo unspecified), 44 to 45 °C; as for `COc1ccc2c(O)c(C(=O)NCCO)nc(Cl)c2c1`, 165 to 167 °C.
In the case of `Cn1c2ccccc2c(=O)n2nc(C(N)=O)cc12`, the melting point lay within 327 to 330 °C.
Regarding `Cc1nn(-c2ccccn2)c2nc3ccccc3c(N(C)C)c12`, the melting point fell in the range of 98 to 101 °C.
For `COc1ccccc1NCN1CCOC1=O` the value was 95.5 to 98 °C.
The compound `COc1ccc(C2CCc3ccccc3C2O)cc1` (stereo unspecified) came in with a melting point of 89 to 90.5 °C.
As for `Cc1ccccc1-c1cc(C#N)c(SSc2[nH]c(-c3ccccc3C)cc2C#N)[nH]1`, the figure is 248 to 249 °C; as for `CC(c1ccc(C(F)(F)F)nc1)S(C)=NC#N` (stereo unspecified), 78 to 80 °C; as for `CCOC(=O)c1cnc2ccc(Cl)cc2c1O`, above 260 °C.
For `O=C(Nc1nc2ccccc2s1)c1cn(-c2ccccc2)c2ccccc2c1=O` the value was 295 to 297 °C; for `CN(CCO)S(=O)(=O)c1cc(NC(=O)c2cnn3c(C(F)(F)F)cc(-c4ccc(C(F)(F)F)cc4)nc23)c(Cl)s1`, 221 °C.
As for `CCCC(O)c1cc(-c2ccc(F)cc2)oc1C` (stereo unspecified), the figure is 96 to 97 °C; as for `NC1=NN(c2cccc(F)c2)C(c2ccccc2)C1` (stereo unspecified), 165 to 166 °C; as for `Cc1cccc(C(=O)Nc2ccc(C(=O)N3Cc4ccccc4Cc4ccccc43)cc2)c1C`, 138 to 142 °C.
Consider `CN(C=O)C1CCC(O)(c2ccc(Cl)c(Cl)c2)c2ccccc21` (stereo unspecified), for which the melting point lay in the range of 123 to 125 °C.
As for `C#CCn1cc(CO)cc1C(=O)OC`, the figure is 77 °C.
For `COc1ccc(C(=O)CCC(=O)O)c(Cl)c1Cl` the value was 142 to 144 °C.
For `CCOC(=O)CCSc1nnsc1-c1ccc(Cl)cc1` the value was 71.5 to 73.5 °C; for `Nc1cc(C(=O)N(Cc2ccccc2)Cc2ccccc2)ccc1OCc1ccccc1`, 81 °C.
In turn, `CC(C)=NN=C(c1ccc(Cl)cc1)c1ccc(OS(C)(=O)=O)cc1` had a melting point of 148 to 149 °C.
For `CCOc1ccnc(N2CCN(C(=O)c3ccccc3C=O)CC2)n1` the value was 134 to 136 °C; for `O=C1CNc2ncc(I)cc2N1Cc1ccccc1OC(F)(F)F`, 235 °C; for `CCOC(=O)c1ncn(-c2nc(C)cs2)c1Cl`, 98 to 101 °C.
For `CC(C)(C)OC(=O)NCCNC(=O)c1cc(Br)ccn1` the value was 134 °C; for `COC(=O)C1CCCn2c(=O)n(CC(=O)OCc3ccccc3)c(=O)n21` (stereo unspecified), 103 to 106 °C.
As for `COc1cccc(C(CCCCCCc2ccccc2)CNC(=O)Cc2c(Cl)cncc2Cl)c1` (stereo unspecified), the figure is 97 to 98 °C; as for `O=C1NC2CC3CC(C2)CC1C3`, above 270 °C; as for `COc1ccc(N2CCOCC2)c2sc(-c3nc4ccc(N5CCCC5)nc4[nH]3)nc12`, 264 to 268 °C.
Turning to `OCc1ccc2cc(CO)ccc2c1`, the melting point was in the range of 171 to 172 °C.
Compound `Nn1c(C2CCCCC2)nnc(-c2ccccc2)c1=O` displayed a melting point of 178 to 180 °C.
With `COC(=O)CCC(C)C1CC=C2C3=C(CCC21C)C1(C)CCC(O)C(C)(C)C1CC3` (stereo unspecified), the melting point was 156 to 157 °C.
For `CCCCc1nc(S(C)(=O)=O)c(C(=O)O)n1Cc1ccc(-c2ccccc2C(=O)O)cc1` the value was 196 °C; for `O=C(CC(=O)C(F)(F)F)c1ccc(-n2cccn2)cc1`, 96 °C; for `O=S(=O)(Nc1ccc2c(OCc3csc(-c4ccc(OC(F)(F)F)cc4)n3)cccc2c1)C(F)(F)F`, 131 to 132 °C.
As for `COC(=O)c1ccc(N2C(=O)CCC2(CO)CO)c(N)c1`, the figure is 192 to 194 °C.
As for `CC(=O)NC[C@H]1CN(c2ccc(C3=CCOCC3)cc2)C(=O)O1`, the figure is 182 to 184 °C; as for `CCc1cc2c(s1)-n1c(C)nnc1C(CC(=O)O)N=C2c1ccc(Cl)cc1` (stereo unspecified), 198 to 202 °C.
Compound `NC(=O)c1ccc(-c2ccc(-c3ccc(C(F)(F)F)cc3)o2)cc1` yielded a melting point of 263 to 264 °C.
As for `COc1cc2c(N)nc(N3CCN(c4nc5cccccc-5n4)CC3)nc2c(OC)c1OC`, the figure is 284 to 285 °C.
As for `Cc1oc(-c2ccc(F)cc2)cc1CC(=O)O`, the figure is 52 to 53 °C; as for `COC(=O)CCC(=O)c1cc(NC(C)=O)ccc1OCC(O)CNC(C)(C)C` (stereo unspecified), 127 to 128 °C.
As for `O=S(=O)(c1ccccc1)c1cc(Br)nc(Br)c1`, the figure is 134 to 135 °C.
For the compound `COc1ccc(N=C(C#Cc2ccccc2)N2CCCN(Cc3ccc(C)cc3)CC2)cc1`, the melting point is 66 °C.
As for `c1ccc(Nc2nc(-c3ccco3)nc3ccccc23)cc1`, the figure is 183 to 184 °C; as for `Cc1nn(-c2cccc(C(F)(F)F)c2)cc1C(=O)N(CC(=O)O)c1ccc(OCC(C)(C)C)c(C#N)c1`, 110 to 112 °C.
For `O=C1COc2ccc(C3=Cc4ccc(NCCCO)cc4OC3c3ccccc3)cc2N1` (stereo unspecified) the value was 215 to 217 °C; for `O=C(O)CCN1C(=O)CSC1=S`, 155 to 156 °C; for `CC(c1ccc(-c2ccccc2)c(F)c1)c1cc(N(C)C(=S)NC(=O)c2ccccc2)on1` (stereo unspecified), 115 to 116 °C.
Compound `CC(C)C(O)(C#C[Si](C)(C)C)c1cncnc1` (stereo unspecified) displayed a melting point of 117 °C.
As for `CCC(CCNC(=O)CC#N)NC(=O)CC#N` (stereo unspecified), the figure is 125 °C; as for `Cc1cccc(-c2[nH]c(C(C)C)nc2-c2ccc(F)c(-c3ccc(S(C)(=O)=O)cc3)c2)n1`, 113 to 115 °C; as for `Cc1noc(-c2ncn3c2[C@@H]2CCCN2C(=O)c2c(Cl)cccc2-3)n1`, 230 to 231 °C.
For `Cc1c(C(=O)Nc2ccc(N3CCNCC3)c(C#N)c2)cnn1-c1ccc(F)cc1` the value was 218 to 219 °C.
As for `CSC(=NC#N)NCCSc1ncccc1C(=O)c1ccccc1`, the figure is 180 to 181 °C; as for `CC1CC(C)CN(CCNC(=O)Nc2ccccc2)C1` (stereo unspecified), 189 to 191 °C; as for `Cc1c(F)c(N2CCNCC2)c(F)c2c1c(=O)c(C(=O)O)cn2-c1ccc(F)cc1F`, 240 to 242 °C.
In turn, `CCCc1cc(-c2ccc(Cl)cc2)nc2c(I)cnn12` yielded a melting point of 108 to 110 °C.
Turning to `O=C1Cc2cc3c(cc2C(c2ccccc2Cl)N1)OCO3` (stereo unspecified), the melting point fell in the range of 207 to 209 °C.
For `COCC#Cc1ncn2c1CN(C)C(=O)c1ccccc1-2` the value was 114 to 115 °C.
The compound `CC1CCc2c(N3CCC(O)CC3)ccc3c(=O)c(C(=O)O)cn1c23` (stereo unspecified) had a melting point of 238 to 240 °C.
For `O=C(O)C=C1SC(Nc2c(Cl)cccc2Cl)=NC1=O` the value was above 230 °C.
The compound `CCCCCCCCCCCCCCCCC(O)CCCOC1CCCCO1` (stereo unspecified) yielded a melting point of 39 to 43 °C.
As for `CCCC(SCC(N)=O)c1ccc2c(c1)OCO2` (stereo unspecified), the melting point is 91 to 92 °C.
As for `CCOc1cc(-c2nnc3c4ccccc4c(OCc4cn(C)cn4)nn23)no1`, the figure is 189 to 190 °C.
